Measurements reported in patent US8178570B2, “Tie-2 modulators and methods of use” (Exelixis, Inc., priority 2003, dated 2012).

Molecular target: Tie-2 (Homo sapiens, UniProt Q02763)
Test: Tie-2 tyrosine kinase activity: kinase-dependent ATP consumption (pEY substrate, luciferase/luciferin chemiluminescence) or 33P-ATP incorporation into substrate
Type: biochemical
Details: Tie-2 (human enzyme) inhibition, Table 2, class symbols A-D
Procedure, shortened: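 Values are IC50 categories: A below 50 nM, B above 50 to 1000 nM, C above 1000 to below 10,000 nM, D 10,000 nM or more. They were measured by 33P-ATP phosphate transfer onto a generic substrate bound to the plate (scintillation), or by luminescent luciferase detection of ATP used with pEY.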

Chain of Tie-2 (Q02763 23-1124): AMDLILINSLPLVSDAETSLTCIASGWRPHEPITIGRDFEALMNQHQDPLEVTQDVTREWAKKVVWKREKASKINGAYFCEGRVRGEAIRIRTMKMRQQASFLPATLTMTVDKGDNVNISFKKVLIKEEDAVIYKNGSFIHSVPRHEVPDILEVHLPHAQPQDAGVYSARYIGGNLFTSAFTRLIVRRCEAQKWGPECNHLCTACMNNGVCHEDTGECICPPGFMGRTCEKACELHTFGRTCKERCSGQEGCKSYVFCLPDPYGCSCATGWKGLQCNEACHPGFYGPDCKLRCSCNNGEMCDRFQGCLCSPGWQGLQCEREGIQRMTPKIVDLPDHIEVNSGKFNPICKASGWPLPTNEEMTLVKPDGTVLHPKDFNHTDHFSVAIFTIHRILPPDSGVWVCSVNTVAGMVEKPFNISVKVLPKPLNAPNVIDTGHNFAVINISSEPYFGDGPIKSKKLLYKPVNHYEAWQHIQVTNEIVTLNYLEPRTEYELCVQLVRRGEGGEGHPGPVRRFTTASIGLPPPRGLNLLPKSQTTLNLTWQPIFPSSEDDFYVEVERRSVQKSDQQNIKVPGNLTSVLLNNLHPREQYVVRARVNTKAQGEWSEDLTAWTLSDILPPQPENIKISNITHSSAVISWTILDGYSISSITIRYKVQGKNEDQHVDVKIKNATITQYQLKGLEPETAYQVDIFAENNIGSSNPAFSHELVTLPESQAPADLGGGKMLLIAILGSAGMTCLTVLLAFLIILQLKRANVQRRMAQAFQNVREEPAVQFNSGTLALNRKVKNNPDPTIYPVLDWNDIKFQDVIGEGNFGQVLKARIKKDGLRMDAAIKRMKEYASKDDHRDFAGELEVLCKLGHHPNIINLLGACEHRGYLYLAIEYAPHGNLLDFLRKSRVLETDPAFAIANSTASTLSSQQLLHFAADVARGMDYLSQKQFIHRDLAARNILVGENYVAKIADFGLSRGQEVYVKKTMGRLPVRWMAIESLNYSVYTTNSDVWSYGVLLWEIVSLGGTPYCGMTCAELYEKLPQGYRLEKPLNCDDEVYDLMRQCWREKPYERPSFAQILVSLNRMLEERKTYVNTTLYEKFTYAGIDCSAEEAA

| Structure (SMILES) | IC50 [µM] |
| --- | --- |
| O=C(Cc1cccc2ccccc12)N(CCn1nc(-c2ccc(O)c(Cl)c2)nc1-c1ccncc1)C1CCCC1 [Entry 11, N-{2-[3-(3-chloro-4-hydroxyphenyl)-5-pyridin-4-yl-1H-1,2,4-triazol-1-yl]ethyl}-N-cyclopentyl-2-naphthalen-1-ylacetamide] | 0.05 to 1 |
| Cc1nc(-c2ccnc(NCCN(C)C)c2)nn1CCN(C(=O)Cc1cccc2ccccc12)C1CCCC1 [Entry 164, N-cyclopentyl-N-{2-[3-(2-{[2-(dimethylamino)ethyl]amino}pyridin-4-yl)-5-methyl-1H-1,2,4-triazol-1-yl]ethyl}-2-naphthalen-1-ylacetamide] | 0.05 to 1 |
| Cc1nc(-c2ccnc(NCc3ccccc3)c2)nn1CCN(C(=O)Cc1cccc2ccccc12)C1CCCC1 [Entry 172, N-cyclopentyl-N-[2-(5-methyl-3-{2-[(phenylmethyl)amino]pyridin-4-yl}-1H-1,2,4-triazol-1-yl)ethyl]-2-naphthalen-1-ylacetamide] | 0.05 to 1 |
| COc1ccc(-c2nc(-c3ccncc3)nn2CCN(C(=O)Nc2cc(Cl)c(Cl)cc2Cl)C2CCCC2)cc1Cl [Entry 126, N-(2-{5-[3-chloro-4-(methyloxy)phenyl]-3-pyridin-4-yl-1H-1,2,4-triazol-1-yl}ethyl)-N-cyclopentyl-N′-(2,4,5-trichlorophenyl)urea] | ≥ 10 |
| Cc1nc(-c2ccnc(NCc3ccccc3)n2)nn1CCN(C(=O)Cc1cccc2ccccc12)C1CCCC1 [Entry 184, N-cyclopentyl-N-[2-(5-methyl-3-{2-[(phenylmethyl)amino]pyrimidin-4-yl}-1H-1,2,4-triazol-1-yl)ethyl]-2-naphthalen-1-ylacetamide] | 0.05 to 1 |
| COc1ccc(NC(=O)N(CCn2nc(-c3ccncc3)nc2-c2ccc(OC)c(Cl)c2)C2CCCC2)c(OC)c1 [Entry 85, N′-[2,4-bis(methyloxy)phenyl]-N-(2-{5-[3-chloro-4-(methyloxy)phenyl]-3-pyridin-4-yl-1H-1,2,4-triazol-1-yl}ethyl)-N-cyclopentylurea] | ≥ 10 |
| COc1ccc(-c2nc(-c3ccncc3)nn2CCN(C(=O)Cc2cccc3ccccc23)C2CCCCC2)cc1Cl [Entry 36, N-(2-{5-[3-chloro-4-(methyloxy)phenyl]-3-pyridin-4-yl-1H-1,2,4-triazol-1-yl}ethyl)-N-cyclohexyl-2-naphthalen-1-ylacetamide] | < 0.05 |
| COc1ccc(-c2nc(-c3ccncc3)nn2CCN(C(=O)Nc2ccc(C)cc2)C2CCCC2)cc1Cl [Entry 136, N-(2-{5-[3-chloro-4-(methyloxy)phenyl]-3-pyridin-4-yl-1H-1,2,4-triazol-1-yl}ethyl)-N-cyclopentyl-N′-(4-methylphenyl)urea] | ≥ 10 |
| Cc1ccc(-c2nc(-c3ccncc3)nn2CCN(C(=O)Cc2cccc3ccccc23)C2CCCC2)cc1 [Entry 70, N-cyclopentyl-N-{2-[5-(4-methylphenyl)-3-pyridin-4-yl-1H-1,2,4-triazol-1-yl]ethyl}-2-naphthalen-1-ylacetamide] | < 0.05 |
| COc1ccc(-c2nc(-c3ccncc3)nn2CC(=O)NC2CCCC2)cc1Cl [Entry 3, 2-{5-[3-chloro-4-(methyloxy)phenyl]-3-pyridin-4-yl-1H-1,2,4-triazol-1-yl}-N-cyclopentylacetamide] | ≥ 10 |
| CCNC(=O)N(CCn1nc(-c2ccncc2)nc1-c1ccc(OC)c(Cl)c1)C1CCCC1 [Entry 109, N-(2-{5-[3-chloro-4-(methyloxy)phenyl]-3-pyridin-4-yl-1H-1,2,4-triazol-1-yl}ethyl)-N-cyclopentyl-N′-ethylurea] | ≥ 10 |
| COc1ccc(-c2nc(-c3ccncc3)nn2CCN(C(=O)Nc2cc(C(F)(F)F)cc(C(F)(F)F)c2)C2CCCC2)cc1Cl [Entry 93, N′-[3,5-bis(trifluoromethyl)phenyl]-N-(2-{5-[3-chloro-4-(methyloxy)phenyl]-3-pyridin-4-yl-1H-1,2,4-triazol-1-yl}ethyl)-N-cyclopentylurea] | ≥ 10 |
| CCc1ccc(NC(=O)N(CCn2nc(-c3ccncc3)nc2-c2ccc(OC)c(Cl)c2)C2CCCC2)cc1 [Entry 112, N-(2-{5-[3-chloro-4-(methyloxy)phenyl]-3-pyridin-4-yl-1H-1,2,4-triazol-1-yl}ethyl)-N-cyclopentyl-N′-(4-ethylphenyl)urea] | ≥ 10 |
| COc1ccc(-c2nc(-c3ccncc3)nn2CCN(C(=O)Nc2cccc(C(C)=O)c2)C2CCCC2)cc1Cl [Entry 95, N′-(3-acetylphenyl)-N-(2-{5-[3-chloro-4-(methyloxy)phenyl]-3-pyridin-4-yl-1H-1,2,4-triazol-1-yl}ethyl)-N-cyclopentylurea] | ≥ 10 |
| COc1ccc(-c2nc(-c3ccncc3)nn2CCN(C(=O)Nc2c(C)cccc2Cl)C2CCCC2)cc1Cl [Entry 151, N-(2-{5-[3-chloro-4-(methyloxy)phenyl]-3-pyridin-4-yl-1H-1,2,4-triazol-1-yl}ethyl)-N′-(2-chloro-6-methylphenyl)-N-cyclopentylurea] | ≥ 10 |
| Cc1nc(-c2ccncc2)nn1CCN(C(=O)Cc1cccc2ccccc12)C1CC1 [Entry 168, N-cyclopropyl-N-[2-(5-methyl-3-pyridin-4-yl-1H-1,2,4-triazol-1-yl)ethyl]-2-naphthalen-1-ylacetamide] | 0.05 to 1 |

| Structure (SMILES) | IC50 [µM] |
| --- | --- |
| COc1ccc(NC(=O)N(CCn2nc(-c3ccncc3)nc2-c2ccc(OC)c(Cl)c2)C2CCCC2)cc1 [Entry 91, N-(2-{5-[3-chloro-4-(methyloxy)phenyl]-3-pyridin-4-yl-1H-1,2,4-triazol-1-yl}ethyl)-N-cyclopentyl-N′-[4-(methyloxy)phenyl]urea] | ≥ 10 |
| COc1ccc(-c2nc(-c3ccncc3)nn2CCN(C(=O)Nc2cc(Cl)ccc2Cl)C2CCCC2)cc1Cl [Entry 133, N-(2-{5-[3-chloro-4-(methyloxy)phenyl]-3-pyridin-4-yl-1H-1,2,4-triazol-1-yl}ethyl)-N-cyclopentyl-N′-(2,5-dichlorophenyl)urea] | ≥ 10 |
| CCOc1ccccc1NC(=O)N(CCn1nc(-c2ccncc2)nc1-c1ccc(OC)c(Cl)c1)C1CCCC1 [Entry 121, N-(2-{5-[3-chloro-4-(methyloxy)phenyl]-3-pyridin-4-yl-1H-1,2,4-triazol-1-yl}ethyl)-N-cyclopentyl-N′-[2-(ethyloxy)phenyl]urea] | 1 to 10 |
| COc1ccc(-c2nc(-c3ccncc3)nn2CCN(C(=O)Nc2c(C)cccc2C)C2CCCC2)cc1Cl [Entry 123, N-(2-{5-[3-chloro-4-(methyloxy)phenyl]-3-pyridin-4-yl-1H-1,2,4-triazol-1-yl}ethyl)-N-cyclopentyl-N′-(2,6-dimethylphenyl)urea] | ≥ 10 |
| COc1ccc(-c2nc(-c3ccncc3)nn2CCCCN(C(=O)Cc2cccc3ccccc23)C2CCCC2)cc1Cl [Entry 24, N-(4-{5-[3-chloro-4-(methyloxy)phenyl]-3-pyridin-4-yl-1H-1,2,4-triazol-1-yl}butyl)-N-cyclopentyl-2-naphthalen-1-ylacetamide] | 1 to 10 |
| COc1ccc(-c2nc(-c3ccncc3)nn2CCN(C(=O)Nc2ccc(Cl)cc2)C2CCCC2)cc1Cl [Entry 135, N-(2-{5-[3-chloro-4-(methyloxy)phenyl]-3-pyridin-4-yl-1H-1,2,4-triazol-1-yl}ethyl)-N′-(4-chlorophenyl)-N-cyclopentylurea] | ≥ 10 |
| Cc1nc(-c2ccncc2)nn1CCN(CCN1CCOCC1)C(=O)Cc1cccc2ccccc12 [Entry 160, N-[2-(5-methyl-3-pyridin-4-yl-1H-1,2,4-triazol-1-yl)ethyl]-N-(2-morpholin-4-ylethyl)-2-naphthalen-1-ylacetamide] | ≥ 10 |
| Cc1cccc(-c2nc(-c3ccncc3)nn2CCN(C(=O)Cc2cccc3ccccc23)C2CCCC2)c1 [Entry 72, N-cyclopentyl-N-{2-[5-(3-methylphenyl)-3-pyridin-4-yl-1H-1,2,4-triazol-1-yl]ethyl}-2-naphthalen-1-ylacetamide] | < 0.05 |
| COc1ccc(-c2nc(-c3ccncc3)nn2CCN(C(=O)Nc2ccc(Cl)c(Cl)c2)C2CCCC2)cc1Cl [Entry 88, N-(2-{5-[3-chloro-4-(methyloxy)phenyl]-3-pyridin-4-yl-1H-1,2,4-triazol-1-yl}ethyl)-N-cyclopentyl-N′-(3,4-dichlorophenyl)urea] | ≥ 10 |
| COc1ccc(-c2nc(-c3ccncc3)nn2CCN(C(=O)Nc2ccc(C#N)cc2)C2CCCC2)cc1Cl [Entry 101, N-(2-{5-[3-chloro-4-(methyloxy)phenyl]-3-pyridin-4-yl-1H-1,2,4-triazol-1-yl}ethyl)-N′-(4-cyanophenyl)-N-cyclopentylurea] | ≥ 10 |
| O=C(Cc1cccc2ccccc12)N(CCn1nc(-c2ccncc2)nc1-c1ccco1)C1CCCC1 [Entry 17, N-cyclopentyl-N-[2-(5-furan-2-yl-3-pyridin-4-yl-1H-1,2,4-triazol-1-yl)ethyl]-2-naphthalen-1-ylacetamide] | < 0.05 |
| Cc1nc(-c2ccnc(Nc3ccccc3)c2)nn1CCN(C(=O)Cc1cccc2ccccc12)C1CCCC1 [Entry 165, N-cyclopentyl-N-(2-{5-methyl-3-[2-(phenylamino)pyridin-4-yl]-1H-1,2,4-triazol-1-yl}ethyl)-2-naphthalen-1-ylacetamide] | 0.05 to 1 |
| CNc1nccc(-c2nc(C)n(CCN(C(=O)Cc3cccc4ccccc34)C3CCCC3)n2)n1 [Entry 161, N-cyclopentyl-N-(2-{5-methyl-3-[2-(methylamino)pyrimidin-4-yl]-1H-1,2,4-triazol-1-yl}ethyl)-2-naphthalen-1-ylacetamide] | ≥ 10 |
| COc1ccc(-c2nc(-c3ccncc3)nn2CCN(C(=O)Nc2cc(C)ccc2OC)C2CCCC2)cc1Cl [Entry 145, N-(2-{5-[3-chloro-4-(methyloxy)phenyl]-3-pyridin-4-yl-1H-1,2,4-triazol-1-yl}ethyl)-N-cyclopentyl-N′-[5-methyl-2-(methyloxy)phenyl]urea] | ≥ 10 |
| COc1ccc(-c2nc(-c3ccncc3)nn2CCN(C(=O)Cc2cccc3ccccc23)C2CCCC2)cc1 [Entry 39, N-cyclopentyl-N-(2-{5-[4-(methyloxy)phenyl]-3-pyridin-4-yl-1H-1,2,4-triazol-1-yl}ethyl)-2-naphthalen-1-ylacetamide] | < 0.05 |
